Measured values as given in patent US20090325904A1, “MALEIC ACID MONOSALT OF ANTIVIRAL AGENT AND PHARMACEUTICAL COMPOSITION CONTAINING THE SAME” (LG Life Sciences Ltd., priority 2007, published 2009).
≈ marks a conversion by molar mass, not a printed value. Read-outs that look alike come from different tables or passages of the source.

Columns and labels:
[1] = Stability at 60°C (residual content by HPLC); conditions: for residual content: 60°C (about 4% RH)
Experimental: (§1) Contents of the free base of 3-[({1-[(2-amino-9H-purin-9-yl)methyl]cyclopropyl}oxy)methyl]-8,8-dimethyl-3,7-dioxo-2,4,6-trioxa-3λ5-phosphanon-1-yl-pivalate and salts thereof were measured by high performance liquid chromatography (HPLC). The specific measuring conditions are fisted below:
After 1 or 2, 4 and 8 weeks, each sample in the glass vial was taken, dissolved in a solvent mixture of tetrahydrofuran/water (1/1, v/v), and analyzed by HPLC.

HepG2.2.15 = test: Cytotoxicity determination (MTT); conditions: for cytotoxicity: HepG2.2.15
Experimental: (§2) The hepatitis B virus-producing cell line, HepG2.2.15 (M. A. Shels, et al., Proc. Natl. Acad. Sci. USA 84, 1005 (1987)), was cultured in DMEM (Dulbecco's Modified Eagle Media; Life Technologies) containing 10% FBS (Fetal Bovine Serum), 1% ABAM (Antibiotic-Antimycotic) and Geneticin whose final concentration was measured as 400 μg/ml. The cells were cultured to confluency, treated with trypsin, and distributed to 96 well microplate in a density of 2×10^4 cells/well. After 24 h, the medium was changed and the compound treatment was carried out in intervals of 2 days by serially diluting the free base of Comparative Example 1 and the maleic acid monosalt of Example by three fold so that the final concentration was 50 μM to 8 nM in 200 μl of medium. Every test samples were duplicated. After 8 days from the first drug treatment, the culture medium was collected, and the cells were lysed by heating the cells to 100° C. for 10 min. In order to minimize the substances that interfere with the DNA amplification reaction, the culture medium was diluted by ten fold using water. The control group, cell culture medium which was not treated with the drug, was treated in the same manner as the above.
(§3) CC50 value of the drug was determined by removing the medium, adding 100 μl of 0.1 mg/ml MTT (Thiazolyl Blue Tetrazolium Bromide: Sigma) to the residue, dyeing the residue for 2 h at 37° C., adding 100 μl of DMSO (Dimethyl Sulfoxide: Sigma), dissolving the resulting mixture by agitating for 2 h at room temperature, and measuring the absorbance at 540 nm.

[2] = Stability under heat and moisture, 40°C/75% RH (residual content by HPLC); assay type: physicochemical
Experimental: as §1
After 1, 4 and 8 weeks, 5 mg of each sample was taken, dissolved in a solvent mixture of tetrahydrofuran/water (1/1, v/v), and analyzed by HPLC.

hepatitis B virus = test: In vitro anti-HBV activity, HBV DNA by real-time PCR in HepG2.2.15 culture medium; assay type: cell-based
Experimental: as §2

[3] = Solubility test at various pH; assay type: physicochemical; conditions: for solubility at 1.5 h: phosphate buffer / phosphoric acid solution, aqueous buffer, thermodynamic from solid
Experimental: 5˜23 mg each of the maleic acid monosalt of the Example and the free base of Comparative Example 1 was placed into a glass bottle. 500 μl each of the various phosphate buffer solution and phosphoric acid solution having a specific pH value was added thereto. The glass bottle was placed in water to maintain a constant temperature of 25° C., and the mixture was stirred for 1.5 h. After filtration, the content in the filtrate was analyzed by HPLC, and the pH of the solution was measured. The measured pH values and the solubilities of the maleic acid monosalt and the free base are represented in the following Table 3.

[4] = Hygroscopicity (no method described); assay type: physicochemical
[5] = Cytotoxicity determination (MTT); conditions: human
Experimental: as §2, §3

## CC(C)(C)C(=O)OCOP(=O)(COC1(Cn2cnc3cnc(N)nc32)CC1)OCOC(=O)C(C)(C)C [Comparative Example 1, Free Base of 3-[({1-[(2-amino-9H-purin-9-yl)methyl]cyclopropyl}oxy)methyl]-8,8-dimethyl-3,7-dioxo-2,4,6-trioxa-3λ5-phosphanon-1-yl-pivalate]
[1]; Week 1
  residual content: 98.2%
[1]; Week 4
  residual content: 79.2%
[1]; Week 8
  residual content: 1.2%
[1]; Week 8, listed as free base
  residual content: about 1%
HepG2.2.15
  cytotoxicity: about 7 m M
HepG2.2.15; HepG2.2.15, MTT
  CC50: 7900 ± 3000 nM
[2]; Week 1
  residual content: 99.0%
[2]; Week 4
  residual content: 91.3%
[2]; Week 8
  residual content: 8.4%
Hepatitis B virus; HepG2.2.15, 8 days, HBV DNA in culture medium, read-out: EC50
  EC50: 1100 ± 100 nM
[3]; pH 6 or more
  solubility: ≤ 1000 µg/mL
[3]; pH of 2 or less
  solubility: ≥ 36000 µg/mL
[3]; solution pH 2.0, 25°C
  solubility: 36500 µg/mL (≈ 69.2 mM)
[3]; solution pH 3.2, 25°C
  solubility: 8300 µg/mL (≈ 15.7 mM)
[3]; solution pH 4.0, 25°C
  solubility: 1700 µg/mL (≈ 3.22 mM)
[3]; solution pH 6.5, 25°C
  solubility: 800 µg/mL (≈ 1.52 mM)

## CC(C)(C)C(=O)OCOP(=O)(COC1(Cn2cnc3cnc(N)nc32)CC1)OCOC(=O)C(C)(C)C.O=C(O)/C=C\C(=O)O.O=C(O)/C=C\C(=O)O.O=C(O)/C=C\C(=O)O [Comparative Example 2, 3-[({1-[(2-amino-9H-purin-9-yl)methyl]cyclopropyl}oxy)methyl]-8,8-dimethyl-3,7-dioxo-2,4,6-trioxa-3λ5-phosphanon-1-yl-pivalate maleic acid trisalt]
[2]; Week 1
  residual content: 84.4%
[2]; Week 4
  residual content: 0.0%
[2]; Week 8
  residual content: 0.0%

## CC(C)(C)C(=O)OCOP(=O)(COC1(Cn2cnc3cnc(N)nc32)CC1)OCOC(=O)C(C)(C)C.Cc1ccc(S(=O)(=O)O)cc1 [Comparative Example 3, 3-[({1-[(2-amino-9H-purin-9-yl)methyl]cyclopropyl}oxy)methyl]-8,8-dimethyl-3,7-dioxo-2,4,6-trioxa-3λ5-phosphanon-1-yl-pivalate p-toluenesulfonic acid monosalt]
[2]; Week 1
  residual content: 96.5%
[2]; Week 4
  residual content: 71.0%

## CC(C)(C)C(=O)OCOP(=O)(COC1(Cn2cnc3cnc(N)nc32)CC1)OCOC(=O)C(C)(C)C.Cc1ccc(S(=O)(=O)O)cc1.Cc1ccc(S(=O)(=O)O)cc1 [Comparative Example 4, 3-[({1-[(2-amino-9H-purin-9-yl)methyl]cyclopropyl}oxy)methyl]-8,8-dimethyl-3,7-dioxo-2,4,6-trioxa-3λ5-phosphanon-1-yl-pivalate p-toluenesulfonic acid disalt]
[2]; Week 1
  residual content: 0.0%
[2]; Week 4
  residual content: 0.0%
[2]; Week 8
  residual content: 0.0%

## CC(C)(C)C(=O)OCOP(=O)(COC1(Cn2cnc3cnc(N)nc32)CC1)OCOC(=O)C(C)(C)C.CS(=O)(=O)O [Comparative Example 5, 3-[({1-[(2-amino-9H-purin-9-yl)methyl]cyclopropyl}oxy)methyl]-8,8-dimethyl-3,7-dioxo-2,4,6-trioxa-3λ5-phosphanon-1-yl-pivalate methanesulfonic acid monosalt]
[2]; Week 1
  residual content: 50.7%
[2]; Week 4
  residual content: 0.0%
[2]; Week 8
  residual content: 0.0%

## CC(C)(C)C(=O)OCOP(=O)(COC1(Cn2cnc3cnc(N)nc32)CC1)OCOC(=O)C(C)(C)C.O=S(=O)(O)c1ccc2ccccc2c1 [Comparative Example 6, 3-[({1-[(2-amino-9H-purin-9-yl)methyl]cyclopropyl}oxy)methyl]-8,8-dimethyl-3,7-dioxo-2,4,6-trioxa-3λ5-phosphanon-1-yl-pivalate naphthalenesulfonic acid monosalt]
[1]; Week 2
  residual content: 74.7%

## CC(C)(C)C(=O)OCOP(=O)(COC1(Cn2cnc3cnc(N)nc32)CC1)OCOC(=O)C(C)(C)C.CCS(=O)(=O)O [Comparative Example 7, 3-[({1-[(2-amino-9H-purin-9-yl)methyl]cyclopropyl}oxy)methyl]-8,8-dimethyl-3,7-dioxo-2,4,6-trioxa-3λ5-phosphanon-1-yl-pivalate ethanesulfonic acid monosalt]
[1]; Week 1
  residual content: 0.4%

## CC(C)(C)C(=O)OCOP(=O)(COC1(Cn2cnc3cnc(N)nc32)CC1)OCOC(=O)C(C)(C)C.O=C(O)/C=C\C(=O)O [Example, 3-[({1-[(2-amino-9H-purin-9-yl)methyl]cyclopropyl}oxy)methyl]-8,8-dimethyl-3,7-dioxo-2,4,6-trioxa-3λ5-phosphanon-1-yl-pivalate maleic acid monosalt]
[4]
  hygroscopicity: non-hygroscopic
[1]; Week 1
  residual content: 99.4%
[1]; Week 4
  residual content: 99.2%
[1]; Week 8
  residual content: 98.2%
[1]; 60°C, stressed condition
  thermal stability (decomposition, in words): remained almost intact without decomposition for up to 8 weeks
[5]
  CC50 at 8 days: 6800 ± 2400 nM
HepG2.2.15
  cytotoxicity: about 7 m M
[2]; Week 1
  residual content: 99.4%
[2]; Week 4
  residual content: 99.3%
[2]; Week 8
  residual content: 98.3%
Hepatitis B virus; Hepatitis B virus, HepG2.2.15, 192 h
  EC50: 1200 ± 300 nM
Hepatitis B virus; Hepatitis B virus, HepG2.2.15, read-out: activity (in vitro, summary in text)
  EC50: ~1000 nM
[3]; pH 6.5
  solubility relative to the free base: three times higher
[3]; 25 °C, pH range of 2 to 6.5
  solubility at 1.5 h: 3000 to 7000 µg/mL
[3]; solution pH 2.0, 25°C
  solubility at 1.5 h: 5600 µg/mL
[3]; solution pH 3.2, 25°C
  solubility at 1.5 h: 7000 µg/mL
[3]; solution pH 4.0, 25°C
  solubility at 1.5 h: 4200 µg/mL
[3]; solution pH 6.5, 25°C
  solubility at 1.5 h: 2900 µg/mL
